Results published in publication PMC12560097, “An injectable hydrogel containing N-acetylglycine for the treatment of Gaucher disease” (RSC Advances, 2025).
pIC50: −log10 of the molar value.

Biological target: T1, glucocerebrosidase (GCase; recombinant human-derived GBA/Glucosylceramidase, rGCase) (Homo sapiens, UniProt P04062)
T1 construct: gene GBA1; recombinant human-derived GBA/Glucosylceramidase (rGCase)
T1 sequence (P04062 40-536): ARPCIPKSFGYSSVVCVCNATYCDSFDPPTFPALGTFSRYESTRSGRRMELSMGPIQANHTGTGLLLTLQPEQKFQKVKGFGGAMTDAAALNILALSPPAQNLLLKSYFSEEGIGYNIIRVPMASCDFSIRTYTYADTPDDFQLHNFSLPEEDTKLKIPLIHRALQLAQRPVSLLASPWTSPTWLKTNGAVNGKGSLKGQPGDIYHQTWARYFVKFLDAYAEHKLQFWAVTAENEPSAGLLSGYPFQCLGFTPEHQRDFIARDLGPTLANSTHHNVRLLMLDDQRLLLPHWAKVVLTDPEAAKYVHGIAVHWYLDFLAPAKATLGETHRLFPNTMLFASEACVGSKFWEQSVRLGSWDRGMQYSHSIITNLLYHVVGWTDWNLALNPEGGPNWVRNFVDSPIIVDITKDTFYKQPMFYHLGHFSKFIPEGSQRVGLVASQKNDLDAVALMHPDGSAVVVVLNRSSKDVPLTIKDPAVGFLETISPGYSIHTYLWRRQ
Assay: fluorogenic 4MU-β-Glc inhibition assay with recombinant GCase, pH […]
Assay type: biochemical

pIC50: 4.31
Compound: CC(=O)NCC(=O)O [NAG, N-acetylglycine]
